Assay results from patent US3973021A, “2-[2-(5-Nitro-2-furyl)vinyl]-4-(phydroxyanilino)quinazoline as a bactericide” (Diamond Shamrock Corporation, priority 1975, dated 1976).
Positions of bridges follow the written chain, without caps; N, C: chain ends. Non-standard residues stand in square brackets, D forms with d. Residues, ends and D or L forms follow the SMILES beside them. *: point of attachment. Ileψ(thiazoline)Cys = CC[C@H](C)[C@H](N)C1=N[C@H](C(=O)*)CS1; dOrn = NCCC[C@@H](N)C(=O)O

How the values were obtained:
[1] = Example VIII: 4 week chick feeding test at low levels; type: in vivo, broiler cross chicks
Source text: (§1) Day old broiler cross chicks were weight equalized into groups of 8 chicks each and were placed in battery brooders. The 32 chick treatment groups (4 replicates) were fed one of the five rations described below for a four week period. Weekly measurements of body weights and feed consumption were made by replicate, and these measurements used to calculate weight gain and feed efficiency.
The basal ration was the basal ration used in Example VII above. The remaining five rations wer obtained by mixing the indicated quantities of bacitracin (4 g/T), chlortetracycline (10 g/T), product of Example I (10 g/T), and product of Example II of U.S. Pat. No. 3,542,784 -- Burch (10 g/T) as growth promotants with the basal ration.

[2] = Example XI: 4 week chick feeding test, five replicates; type: in vivo, broiler cross chicks; details: for feed efficiency (in words) / growth rate (in words): Table V
Source text: (§2) This example compares growth promotion activity of the product of Example I with other growth promotants at a concentration of 25 g/T in the Basal Ration described in Example VII. The other growth promotants include the product described in Example I of U.S. Pat. No. 3,542,784 -- Burch and quinoxaline-1,4-dioxide. Day old broiler cross chicks were weight equalized into groups of 8 chicks each, and four replicates of 8 chicks each were fed the experimental rations over a 4 week period.
The growth promotion tests described in Example X were repeated with the exception that fives replicates of 8 chicks each were fed the formulations described in Table V for four weeks.

[3] = test system: S. faecalis, E. rhusiopathiae, B. bronchiseptica, S. agalactiae, Streptococcus group E and Vibrio coli; experiment: Bactericide test, comparison with chlortetracycline; type: cell-based; details: Table A
Source text: Test formulations were examined for bactericidal and/or bacteriostatic activity against the test organisms shown in Tables A and B. These organisms were chosen as being representative of commercially important pathogens affecting animal agriculture. The antibiotic chlortetracycline was chosen as a positive control, since it has a broad spectrum of activity against a large number of organisms, and its activity can be used for comparative purposes.
Basic test formulations of the product of Examples I, II, III, and of chlortetracycline were prepared by dissolving 16 mg (0.016 g) in 2.0 ml of stock emulsifier solution (0.25% Triton X-155 in acetone by volume) and making each solution up to 50 ml with deionized water. The concentration of the test compound in the basic formulation was 320 ppm. Lower concentrations of the test compound were obtained by diluting the basic formulation with a 4% solution of the stock emulsifier in deionized water so that each dilution in the series differed only in test compound content.
Nutrient-tryptic soy agar (NTA) consisting of 2.0% Difco Bactoagar 0.8% nutrient broth (Difco), and 0.5% tryptic soy broth (Difco) was prepared and sterilized by autoclaving. A 2 ml aliquot of each test formulation was added to 8 ml of molten NTA. This mixture was then plated in a sterile polystyrene petri dish (100 × 15 mm). After the agar was set, suspensions of each of the test organisms were simultaneously streaked onto the surface of the agar. The inoculated plates were incubated for 48 hr. at 28°C. The inhibition of growth of each organism was rated by visual comparison with the organism developing on non-treated agar. Growth inhibition reported as percent control was rated in three categories as follows: 0% control, growth equivalent to that on non-treated agar; 50% control, sparse development and separated colonies; 100% control, no visible growth or development of colonies.

[4] = Example VII: 4 week chick feeding test, weight gain and feed efficiency; type: in vivo, broiler cross chicks; details: analysis of variance; over Basal Ration + Bacitracin
Source text: One hundred twenty day-old broiler cross chicks were weight equalized into 15 groups of 8 chicks each and placed in battery brooders. The 40 chick treatment groups (5 replicates) were fed the one of the three rations described below for a four week period. weekly measurements of body weights and feed consumption were made by replicate, and these measurements used to calculate weight gain and feed efficiency.
The commercial type broiler starter basal ration which was used in this study was designated as the Basal Ration, and had the following composition:
The preceding basal ration was mixed with bacitracin at a level of 4 g/T as the only growth stimulant to simulate commercial practice. This mixture was designated as the Basal Ration + Bacitracin (4 g/T) and constituted the negative control in this study.
A second ration was prepared by fortifying the Basal Ration + bacitracin described above with the Product from Example I above at a level of 200 g/T, and was designated as Basal Ration + Bacitracin + Product of Example I (200 g/T). A third ration was prepared by fortifying the Basal Ration + bacitracin described above with chlortetracycline (CTC) at a level of 200 g/T, and was designated as Basal Ration + Bacitracin + Chlortetracycline (200 g/T).
The term "growth promotion" is used herein to describe the beneficial effect of a compound in eliciting a more rapid of weight gain when compared to the weight gain of control animals not fed the compound. "Feed efficiency" is a term regularly used in animal husbandry and is a measure of the pounds of feed required to produce a pound of gain in the weight of the animal. A lower mathmatical value for feed efficiency reflects improved performance.

[5] = Example IX: chick feeding test, titration dosage; type: in vivo, broiler cross chicks
Source text: as §1
The concentrations used in this test were 6.25, 12.5, 25, 50, 100, 200 and 400 g of the Product of Example I per ton of the Basal Ration described in Example VII above. The same number and size chick treatment groups were used in this test as in Example VIII above.

[6] = Example X: 4 week chick feeding test, 25 g/T; type: in vivo, broiler cross chicks
Source text: as §2

[7] = Example XII: 4 week chick feeding test, first set (Table VI); type: in vivo, broiler cross chicks; details: Table VI
Source text: as §2
The growth promotion tests described in Example X were repeated with the additional testing the products of Examples II and III.

[8] = Example XIII: 6 week swine feeding test, growth rate and feed efficiency; type: in vivo, weanling pigs; details: Table VIII
Source text: Thirty-six weanling pigs weighing approximately thirty pounds each in good physical condition and originating from a common source were used in these tests. The pigs were allocated into sex and weight equalized pens of six pigs each. A one week period was allowed for acclimatization before testing. Three replicates of six pigs were fed the basal ration described below, and three replicates were fed the same basal ration supplemented with 25 g/T of the product of Example I.
The basal ration was a 17% commercial corn-soya pelletized formulation which was free of antibiotic and drug components. Composition of the basal ration formulation was: […]
The rations were offered ad libitum from six bushel self-feeders with a continuous supply of fresh water. The same ration formulations were used throughout the six week feeding period. Individual pig weighing were made after 0,2,4 and 6 (termination) week periods. Feed consumption records were kept on a pen basis, with feed efficiency conversion being compiled at the end of the 2nd, 4th and 6th (termination) week of feeding. Complete morbidity and mortality records were kept.

[9] = Example XII: 4 week chick feeding test, repeat with five replicates (Table VII); type: in vivo, broiler cross chicks; details: Table VII

In the case of `CC[C@H](C)[C@H](N)C1=N[C@H](C(=O)N[C@@H](CC(C)C)C(=O)N[C@H](CCC(=O)O)C(=O)N[C@H](C(=O)N[C@H]2CCCCNC(=O)[C@H](CC(N)=O)NC(=O)[C@@H](CC(=O)O)NC(=O)[C@H](Cc3cnc[nH]3)NC(=O)[C@@H](Cc3ccccc3)NC(=O)[C@H]([C@@H](C)CC)NC(=O)[C@@H](CCCN)NC2=O)[C@@H](C)CC)CS1` [Bacitracin] ({Ileψ(thiazoline)Cys}-L[dE]IK[dOrn]I[dF]H[dD]N; lactam 4-C), the “Improved Response Over Basal Ration: Feed Efficiency” value ([1]; 4 g/T in Basal Ration) is reported as “+1.2%”, the “Improved Response Over Basal Ration: Gain” value ([1]; 4 g/T in Basal Ration) is reported as -2.3% and the “Improved Response Over Basal Ration: Feed Efficiency” value ([2]; 25g/T) is reported as “+3.1%”. For the same molecule, the “Improved Response Over Basal Ration: Gain” value ([2]; 25g/T) was “+1.2%”, the “feed efficiency (in words)” value [2] was “moderate improvements in feed efficiencies” and the “growth rate (in words)” value [2] was “slight improvements in growth rates”.

For `O=[N+]([O-])c1ccc(C=Cc2nc(Nc3ccc(O)cc3)c3ccccc3n2)o1` [Example I, 2-[2-(5-nitro-2-furyl)vinyl]-4-(p-hydroxyanilino)quinazoline], the “effectiveness relative to chlortetracycline (in words)” value [3] was “considerably more effective”, the “statistical significance of improved feed efficiencies” value [4] was “significant at the 99.9% level of probability” and the “statistical significance of improved weight gains” value [4] was “significant at the 99.5% level of probability”. For the same molecule, the “growth promotion (in words)” value ([1]; Table II, compared with other growth promotants) was “greater growth promotion than any of the other growth promotants”, the “growth promotion (in words)” value ([5]; 12.5 g/T) was “noticeable growth promotion” and the “weight gain and feed efficiency (in words)” value ([5]; 25 and 50 g/T) was “improvements in weight gain and feed efficiency”. For the same molecule, the “weight gain (in words)” value ([5]; 100 g/T) was “absence of weight gain improvement”, the “improvement (in words)” value ([5]; 200 g/T) was “substantial improvements” and the optimum concentration ([5]; economics and efficacy) was 25 g/T. For the same molecule, the “Average 4 Week Performance: Feed Efficiency” value ([6]; 25g/T) was 1.503, the “Improved Response Over Basal Ration: Feed Efficiency” value ([6]; 25g/T) was “+3.2%” and the “Improved Response Over Basal Ration: Gain” value ([6]; 25g/T) was “+6.2%”. The “growth rate and feed efficiency response (in words)” value ([6]; 25 g/T, Table IV) was “strongest response in growth rate and feed efficiency”, the “combined effect with bacitracin (in words)” value ([2]; 25g/T + 25g/T bacitracin) was “synergistic effects” and the “Improved Response Over Basal Ration: Feed Efficiency” value ([2]; 25g/T + Bacitracin (25g/T)) was “+7.5%”. For the same molecule, the “Improved Response Over Basal Ration: Gain” value ([2]; 25g/T + Bacitracin (25g/T)) was “+4.6%”, the “feed efficiency (in words)” value [2] was “substantial improvement in feed efficiency” and the “growth rate (in words)” value [2] was “moderate improvement in growth rate”. The “growth rate / feed efficiency response (in words)” value [7] was “moderate improvement in production parameters”, the “feed efficiency (in words)” value [8] was “enhanced feed efficiency” and the “growth (in words)” value [8] was “very substantial growth improvement”. The “growth rate / feed efficiency response (in words)” value [9] was “moderate improvement in production parameters”.

With `O=[N+]([O-])c1ccc(C=Cc2nc(Nc3cccc(O)c3)c3ccccc3n2)o1` [Example II, 2-[2-(5-nitro-2-furyl)vinyl]-4-(m-hydroxyanilino)quinazoline] the “effectiveness relative to chlortetracycline (in words)” value [3] was “considerably more effective” and the “growth rate / feed efficiency response (in words)” value [7] was “moderate improvements”.

With `O=[N+]([O-])c1ccc(C=Cc2nc(Nc3ccccc3)c3ccccc3n2)o1` [Example IV, 2-[2-(5-nitro-2-furyl)vinyl]-4-anilinoquinazoline] the “effectiveness relative to chlortetracycline (in words)” value [3] was “considerably more effective”.
